# Results as given in US20260200919A1, “SUBSTITUTED AMINOPYRIDINE COMPOUNDS AND METHODS OF TREATING DISEASE USING SAME” (Atavistik Bio, Inc., priority 2023, published 2026).
# pIC50: −log10 of the molar value.
# How the values were obtained:
# [1] = molecular target: T1, human recombinant kinase full-length AKT1 E17K (Homo sapiens, UniProt P31749, E17K); assay: AKT1 E17K kinase assay (TR-FRET, Lance); assay type: biochemical; details: 0.6 nM AKT1 E17K, 50 nM Ulight-CREBtide, either 50 μM ATP or 2 mM ATP (not specified which), 60 min at RT
# T1 construct: Purified human recombinant kinase full-length AKT1 E17K was expressed in insect cells; made in house; host or cells: insect cells
# Method in brief: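 Full-length human AKT1 E17K (insect cell-expressed, PDPK1-activated; 0.6 nM) with 50 nM ULight-CREBtide in HEPES pH 7.5 with MgCl2 and DTT. ATP at 50 μM or 2 mM, 1% DMSO, 10-point dose response, 60 min at RT.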
# [2] = molecular target: T2, human recombinant kinase full-length wildtype AKT1 (Homo sapiens, UniProt P31749); assay: AKT1 kinase assay (wildtype, TR-FRET, Lance); assay type: biochemical; details: 0.6 nM wildtype AKT1, 50 nM Ulight-CREBtide, either 50 μM ATP or 2 mM ATP (not specified which), 60 min at RT
# T2 construct: Purified human recombinant kinase full-length wildtype AKT1 was expressed in insect cells; made in house; host or cells: insect cells
# Method in brief: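 Insect-cell-expressed AKT1, activated in vitro by PDPK1, was used at 0.6 nM with 50 nM Ulight-CREBtide and 50 μM or 2 mM ATP in 50 mM HEPES pH 7.5, 1% DMSO, over a 10-point dose response.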
# T2 sequence (P31749 whole entry): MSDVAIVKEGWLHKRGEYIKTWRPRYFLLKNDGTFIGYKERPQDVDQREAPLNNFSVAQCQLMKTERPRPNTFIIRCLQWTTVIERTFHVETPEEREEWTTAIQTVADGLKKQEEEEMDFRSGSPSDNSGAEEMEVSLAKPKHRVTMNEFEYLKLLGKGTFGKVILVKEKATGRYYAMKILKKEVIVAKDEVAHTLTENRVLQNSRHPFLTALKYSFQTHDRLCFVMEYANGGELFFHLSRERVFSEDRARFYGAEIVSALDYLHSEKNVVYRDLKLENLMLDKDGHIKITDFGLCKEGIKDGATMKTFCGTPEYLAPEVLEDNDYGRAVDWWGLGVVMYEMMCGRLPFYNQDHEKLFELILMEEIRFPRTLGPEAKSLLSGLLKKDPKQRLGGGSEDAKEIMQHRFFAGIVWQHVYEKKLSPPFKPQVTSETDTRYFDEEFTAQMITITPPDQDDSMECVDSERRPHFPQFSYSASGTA
# T1 sequence (P31749 whole entry E17K): as the sequence (P31749 whole entry) above, with E17K counted along it
pIC50 [1],pIC50 [2],SMILES
< 6.30,> 6.30,"Cc1cc(C(=O)O)ccc1NC(=O)c1ccc(-n2c(-c3cccnc3N)nc3ccc(-c4ccccc4)nc32)cn1 [Compound 178, 4-(5-(2-(2-aminopyridin-3-yl)-5-phenyl-3H-imidazo[4,5-b]pyridin-3-yl)picolinamido)-3-methylbenzoic acid]"
6.30 to 6.70,> 6.30,"Nc1ncccc1-c1nc2ccc(-c3ccccc3)nc2n1-c1ccc(C(=O)Nc2ccc(C(=O)O)cc2F)nc1 [Compound 179, 4-(5-(2-(2-aminopyridin-3-yl)-5-phenyl-3H-imidazo[4,5-b]pyridin-3-yl)picolinamido)-3-fluorobenzoic acid]"
> 7.30,> 6.30,"Nc1ncccc1-c1nc2ccc(-c3ccccc3)nc2n1-c1ccc(C(=O)Nc2ccc(C(=O)O)cc2F)cc1 [Compound 180, 4-(4-(2-(2-aminopyridin-3-yl)-5-phenyl-3H-imidazo[4,5-b]pyridin-3-yl)benzamido)-3-fluorobenzoic acid]"
6.70 to 7.30,> 6.30,"Nc1ncccc1-c1nc2ccc(-c3ccccc3)nc2n1-c1ccc(C2CN(Cc3ccc(C(=O)O)cc3)C2)cc1 [Compound 183, 4-((3-(4-(2-(2-aminopyridin-3-yl)-5-phenyl-3H-imidazo[4,5-b]pyridin-3-yl)phenyl)azetidin-1-yl)methyl)benzoic acid]"
> 7.30,> 6.30,"COc1cc(CN2CC(c3ccc(-n4c(-c5cccnc5N)nc5ccc(-c6ccccc6)nc54)cc3)C2)ccc1C(=O)O [Compound 184, 4-((3-(4-(2-(2-aminopyridin-3-yl)-5-phenyl-3H-imidazo[4,5-b]pyridin-3-yl)phenyl)azetidin-1-yl)methyl)-2-methoxybenzoic acid]"
> 7.30,> 6.30,"Nc1ncccc1-c1nc2ccc(-c3ccccc3)nc2n1-c1ccc(C2CN(Cc3cc(O)c(C(=O)O)c(F)c3)C2)cc1 [Compound 185, 4-((3-(4-(2-(2-aminopyridin-3-yl)-5-phenyl-3H-imidazo[4,5-b]pyridin-3-yl)phenyl)azetidin-1-yl)methyl)-2-fluoro-6-hydroxybenzoic acid]"

# Further lines, the compound ahead of its results:
SMILES,pIC50 [1],pIC50 [2]
"CC(C)(C)c1ccc2nc(-c3cccnc3N)n(-c3ccc(NC(=O)c4ccc(C(=O)O)cc4)nc3)c2c1 [Compound 174, 4-((5-(2-(2-aminopyridin-3-yl)-6-(tert-butyl)-1H-benzo[d]imidazol-1-yl)pyridin-2-yl)carbamoyl)benzoic acid]",< 6.30,< 6.30
"Nc1ncccc1-c1nc2ccc(OC(F)(F)F)cc2n1-c1ccc(NC(=O)c2ccc(C(=O)O)cc2)nc1 [Compound 175, 4-((5-(2-(2-aminopyridin-3-yl)-6-(trifluoromethoxy)-1H-benzo[d]imidazol-1-yl)pyridin-2-yl)carbamoyl)benzoic acid]",< 6.30,< 6.30
"CC(C)Oc1ccc2nc(-c3cccnc3N)n(-c3ccc(NC(=O)c4ccc(C(=O)O)cc4)nc3)c2c1 [Compound 176, 4-[[5-[2-(2-amino-3-pyridyl)-6-isopropoxy-benzimidazol-1-yl]-2-pyridyl]carbamoyl]benzoic acid]",< 6.30,< 6.30
"Cc1cc(NC(=O)c2ccc(-n3c(-c4cccnc4N)nc4ccc(-c5ccccc5)nc43)cn2)ccc1C(=O)O [Compound 177, 4-(5-(2-(2-aminopyridin-3-yl)-5-phenyl-3H-imidazo[4,5-b]pyridin-3-yl)picolinamido)-2-methylbenzoic acid]",6.30 to 6.70,> 6.30
"Cc1cc(C(=O)Nc2ccc(-n3c(-c4cccnc4N)nc4ccc(-c5ccccc5)nc43)nc2C)ccc1C(=O)O [Compound 181, 4-((6-(2-(2-aminopyridin-3-yl)-5-phenyl-3H-imidazo[4,5-b]pyridin-3-yl)-2-methylpyridin-3-yl)carbamoyl)-2-methylbenzoic acid]",< 6.30,< 6.30
"Cc1nc(NC(=O)c2ccc(C(=O)O)cc2)ccc1-n1c(-c2cccnc2N)nc2ccc(-c3ccccc3)cc21 [Compound 182, 4-((5-(2-(2-aminopyridin-3-yl)-6-phenyl-1H-benzo[d]imidazol-1-yl)-6-methylpyridin-2-yl)carbamoyl)benzoic acid]",< 6.30,> 6.30
